Literature values as cited in patent publication US20210205254A1, “OMEGA-3 PENTAENOIC ACID COMPOSITIONS AND METHODS OF USE” (Matinas BioPharma, Inc., priority 2012, published 2021).

Settings: in vivo

| bioavailable | absorbed (rate) | SMILES |
| --- | --- | --- |
| approximately 24% | – | CC(C)n1c(/C=C/C(O)CC(O)CC(=O)O)c(-c2ccc(F)cc2)c2ccccc21 (centres unmarked) [fluvastatin] |
| – | about 30% | CC[C@H](C)C(=O)O[C@H]1C[C@@H](C)C=C2C=C[C@H](C)[C@H](CC[C@@H]3C[C@@H](O)CC(=O)O3)[C@H]21 [lovastatin] |
